Source: patent US20140107109A1, “AMINO-DIHYDROTHIAZINE AND AMINO-DIOXIDO DIHYDROTHIAZINE COMPOUNDS AS BETA-SECRETASE ANTAGONISTS AND METHODS OF USE” (Amgen Inc., priority 2012, published 2014)

How the values were obtained:
[1] = system: Aβ40 in conditioned medium of cells stably expressing Amyloid Precursor Protein (APP); assay: In vitro BACE cell-based assay (HEK cell assay), Aβ40 sandwich ELISA; conditions: Homo sapiens, HEK293; average IC50, HEK cell assay
In short: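 APP-stably expressing cells (40K/well, grown 24 h in DMEM/10% FBS) were treated 24 h with compounds in 10-point dose response starting at 100 μM or 10 μM, 0.1% DMSO final. Secreted Aβ40 was measured by sandwich ELISA (pAb40 capture, biotinylated 6E10 detection, europium time-resolved fluorescence); IC50 from percent inhibition.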

[2] = biological target: Beta Secretase enzyme (BACE1) (Homo sapiens, UniProt P56817); assay: In vitro enzymatic BACE FRET assay; format: biochemical; conditions: average IC50, enzyme assay; read-out: BACE1 FRET assay IC50
Beta Secretase enzyme (BACE1), sequence (P56817 46-501): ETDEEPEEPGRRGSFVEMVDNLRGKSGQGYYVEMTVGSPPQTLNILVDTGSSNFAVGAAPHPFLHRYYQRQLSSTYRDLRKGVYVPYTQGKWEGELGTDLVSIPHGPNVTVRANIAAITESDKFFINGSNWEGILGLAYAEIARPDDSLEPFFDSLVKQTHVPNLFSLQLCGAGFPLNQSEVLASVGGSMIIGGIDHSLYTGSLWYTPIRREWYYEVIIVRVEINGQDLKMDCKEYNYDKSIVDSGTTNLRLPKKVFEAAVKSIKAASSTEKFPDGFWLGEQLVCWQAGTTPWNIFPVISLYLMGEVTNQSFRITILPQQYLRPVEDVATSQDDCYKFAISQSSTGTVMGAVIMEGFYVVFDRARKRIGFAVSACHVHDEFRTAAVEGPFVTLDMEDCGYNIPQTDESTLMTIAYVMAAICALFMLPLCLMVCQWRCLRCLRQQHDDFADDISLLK
In short: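 BACE1 cleavage of a 50 nM fluorophore/quencher peptide FRET substrate ran for one hour in 0.05 M acetate pH 4.2, 10% DMSO, 100 uM genapol. Tris buffer raised pH to neutrality to stop the reaction before fluorescence was read (excitation 488 nm, […]).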

Cathepsin D (Cat D) = biological target: T1, Cathepsin D (Cat D) (Homo sapiens, UniProt P07339); assay: In vitro enzymatic Cathepsin D (Cat D) FRET assay; format: biochemical; conditions: read-out: CatD IC50
T1 construct: Recombinant Cat D was expressed in CHO cells; made in house; host or cells: CHO cells
T1 sequence (P07339 65-412, species assumed): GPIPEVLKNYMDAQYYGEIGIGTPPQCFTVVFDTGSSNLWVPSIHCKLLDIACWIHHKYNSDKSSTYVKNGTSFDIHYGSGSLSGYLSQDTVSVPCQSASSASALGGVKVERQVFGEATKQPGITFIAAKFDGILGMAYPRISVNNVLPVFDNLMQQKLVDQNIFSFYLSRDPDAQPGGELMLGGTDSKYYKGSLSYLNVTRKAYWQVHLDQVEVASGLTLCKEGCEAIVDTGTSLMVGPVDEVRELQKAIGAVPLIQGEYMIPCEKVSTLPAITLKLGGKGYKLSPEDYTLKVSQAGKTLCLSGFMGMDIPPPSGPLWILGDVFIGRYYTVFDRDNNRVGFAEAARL
In short: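 Recombinant Cat D expressed in CHO cells, used at 9 nM and pre-incubated one hour with serially diluted inhibitor in DMSO. Peptide substrate carries a fluorophore and quencher flanking the cleavage site; reaction stopped with Tris buffer raising pH to neutrality, then fluorescence read.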

## C[C@]1(F)C(N)=N[C@](C)(c2cc(NC(=O)c3cnc(C(F)(F)F)cn3)ccc2F)CS1(=O)=O [Example 323, N-(3-((3R,6R)-5-amino-6-fluoro-3,6-dimethyl-1,1-dioxido-3,6-dihydro-2H-1,4-thiazin-3-yl)-4-fluorophenyl)-5-(trifluoromethyl)-2-pyrazinecarboxamide]
[1]
  IC50: 0.288 µM
[2]
  IC50: 0.00386 µM
Cathepsin D (Cat D)
  IC50: 931 µM

## Cc1cc(C#N)cnc1C(=O)Nc1ccc(F)c([C@]2(C)CS(=O)(=O)[C@@](C)(F)C(N)=N2)c1 [Example 324, N-(3-((3R,6R)-5-amino-6-fluoro-3,6-dimethyl-1,1-dioxido-3,6-dihydro-2H-1,4-thiazin-3-yl)-4-fluorophenyl)-5-cyano-3-methyl-2-pyridinecarboxamide]
[1]
  IC50: 0.0651 µM
[2]
  IC50: 0.00102 µM
Cathepsin D (Cat D)
  IC50: 1370 µM

## C[C@]1(F)C(N)=N[C@](C)(c2cc(NC(=O)c3cnc(OCC(F)(F)F)cn3)ccc2F)CS1(=O)=O [Example 325, N-(3-((3R,6R)-5-amino-6-fluoro-3,6-dimethyl-1,1-dioxido-3,6-dihydro-2H-1,4-thiazin-3-yl)-4-fluorophenyl)-5-(2,2,2-trifluoroethoxy)-2-pyrazinecarboxamide]
[1]
  IC50: 0.0445 µM
[2]
  IC50: 0.00042 µM
Cathepsin D (Cat D)
  IC50: 1260 µM

## C[C@]1(F)C(N)=N[C@](C)(c2cc(NC(=O)c3ncc(C(F)F)cc3Cl)ccc2F)CS1(=O)=O [Example 326, N-(3-((3R,6R)-5-amino-6-fluoro-3,6-dimethyl-1,1-dioxido-3,6-dihydro-2H-1,4-thiazin-3-yl)-4-fluorophenyl)-3-chloro-5-(difluoromethyl)-2-pyridinecarboxamide]
[1]
  IC50: 0.0597 µM
[2]
  IC50: 0.00277 µM
Cathepsin D (Cat D)
  IC50: 979 µM

## C[C@]1(F)C(N)=N[C@](C)(c2cc(NC(=O)c3ncc(C#N)cc3Cl)ccc2F)CS1(=O)=O [Example 327, N-(3-((3R,6R)-5-amino-6-fluoro-3,6-dimethyl-1,1-dioxido-3,6-dihydro-2H-1,4-thiazin-3-yl)-4-fluorophenyl)-3-chloro-5-cyano-2-pyridinecarboxamide]
[1]
  IC50: 0.0204 µM
[2]
  IC50: 0.00074 µM
Cathepsin D (Cat D)
  IC50: > 400 µM

## COCc1cc(Cl)cnc1C(=O)Nc1ccc(F)c([C@]2(C)CS(=O)(=O)[C@@](C)(F)C(N)=N2)c1 [Example 328, N-(3-((3R,6R)-5-amino-6-fluoro-3,6-dimethyl-1,1-dioxido-3,6-dihydro-2H-1,4-thiazin-3-yl)-4-fluorophenyl)-5-chloro-3-(methoxymethyl)-2-pyridinecarboxamide]
[1]
  IC50: 0.0928 µM
[2]
  IC50: 0.00051 µM
Cathepsin D (Cat D)
  IC50: 598 µM

## CC1(C)C(N)=N[C@](C)(c2cc(NC(=O)c3ncc(Cl)cc3F)ccc2F)C(F)S1(=O)=O (stereo partly drawn) [Example 329, N-(3-((3R)-5-amino-2-fluoro-3,6,6-trimethyl-1,1-dioxido-3,6-dihydro-2H-1,4-thiazin-3-yl)-4-fluorophenyl)-5-chloro-3-fluoro-2-pyridinecarboxamide]
[1]
  IC50: 0.0058 µM
[2]
  IC50: 0.00047 µM
Cathepsin D (Cat D)
  IC50: > 400 µM

## Cc1cc(OC(F)F)cnc1C(=O)Nc1ccc(F)c([C@@]2(C)N=C(N)C(C)(C)S(=O)(=O)C2F)c1 (stereo partly drawn) [Example 330, N-(3-((3R)-5-amino-2-fluoro-3,6,6-trimethyl-1,1-dioxido-3,6-dihydro-2H-1,4-thiazin-3-yl)-4-fluorophenyl)-5-(difluoromethoxy)-3-methyl-2-pyridinecarboxamide]
[1]
  IC50: 0.0041 µM
[2]
  IC50: 0.00075 µM
Cathepsin D (Cat D)
  IC50: 136 µM

## Cc1cc(Cl)cnc1C(=O)Nc1ccc(F)c([C@@]2(C)N=C(N)C(C)(C)S(=O)(=O)C2F)c1 (stereo partly drawn) [Example 331, N-(3-((3R)-5-amino-2-fluoro-3,6,6-trimethyl-1,1-dioxido-3,6-dihydro-2H-1,4-thiazin-3-yl)-4-fluorophenyl)-5-chloro-3-methyl-2-pyridinecarboxamide]
[1]
  IC50: 0.0048 µM
[2]
  IC50: 0.0003 µM
Cathepsin D (Cat D)
  IC50: 188 µM
